By IC50 is commonly meant the concentration that inhibits the measured activity by half. A low value points to inhibition by little substance.

One data set has as its system HT29 tumor xenografts. Put plainly: HT29 tumor xenograft growth in nude mice. It is filed as in vivo, athymic NU/NU female mice. The procedure: HT29 cells (10^7 cells) in 100 μl PBS were injected subcutaneously into the right flank of athymic NU/NU female mice housed at the Institut Gustave Roussy.
First, the sensitivity of tumor xenografts to VPA treatment was evaluated. When tumors reached 70-100 mm^3, mice were injected intraperitoneally with VPA (200 mg/kg or 300 mg/kg) or PBS in a volume of 200 μl five consecutive days per week. Tumor volume was evaluated twice a week for 4 weeks by measuring with calipers.
In a second series of experimentation, when tumors reached 70-100 mm^3, mice were first injected subcutaneously with Δ24 CRAd, or with a non-replicative adenovirus (AdCO1, deleted of region E1) or with PBS three consecutive days and every 7 days for 4 weeks. In parallel and beginning at day 4, mice received intraperitoneal injection of VPA (300 mg/kg) or PBS in a volume of 200 μl five consecutive days per week until the end of the protocol. Tumor growth was measured twice a week for 4 weeks.

The subject of a further data set is γH2AX. Put plainly: γH2AX expression, confocal microscopy in HT29 cells. The data set is classed as cell-based. The note with it: HT29, 3 days, CRAd MOI 15.6, VPA IC25/IC50. The procedure:
HT29 cells were seeded at 5·10^5 cells/well on 6-well plates and cultured overnight. Cells were treated with Δ24 CRAd (MOI 15.6 vp/cell), VPA (IC25, IC50) or both (CRAd+VPA), or with the non-replicative adenovirus AE18 during 72 h. Then non-adherent tumor cells and adherent tumor cells were detached with TrypLE™ Express (1X) (INVITROGEN) cytospined on slides (500 rpm, 5 min), washed with PBS and fixed with 4% paraformaldehyde for 30 min. After permeabilization with 0.5% Triton X-100 for 10 min, samples were blocked with 3% BSA for 30 min. Samples were exposed to primary antibodies (1:1,000 anti-γH2AX, for 1-2 h in PBS/BSA) followed by Alexa Fluor-conjugated secondary antibody staining for 1 h. When filamentous actin was also stained, tetramethyl-rhodamine B isothiocyanate-labeled phalloidin (SIGMA) was added with the secondary antibody incubation. Cells were washed four times with PBS after secondary antibody staining and then mounted on glass slides by using mounting medium with DAPI (VECTASHIELD; Vector Laboratories). All images were obtained by using the ZEISS LSM 510 confocal microscope.

For data set [1], the system named is HT29 cells. Put plainly: LDH release cell death assay. It is filed as cell-based. The note with it: HT29, day 3, CRAd MOI 15.6 or VPA IC25/IC50 alone. The text has this:
Colon carcinoma HT29 cells were untreated or treated with CRAd (MOI 15.6 vp/cell), VPA (IC25 or IC50) or both. After 3 days, cell death was quantified by determination of Lactate deshydrogenase (LDH) release in cell supernatant, using Tox Cytotoxicity Assay kit (TOX7, Sigma Aldrich, France). The results were expressed relative to total LDH level obtained with cells treated with identical conditions and permeabilized with triton 0.1%. The results (Mean+SD) are shown on FIG. 7. They are representative of two experiments.

The subject of the next data set is Δ24 CRAd. The data set can be described thus: CRAd production in HT29 cells, plaque assay on 911 cells. The data set is classed as cell-based. The settings on record: HT29, CRAd MOI 15.6, VPA IC25 and IC50, 3 days. The procedure: Colon cancer HT29 cells (5·10^5) in 6-well plates were infected with Δ24 CRAd (MOI 15.6 vp/cell) alone or in combination with VPA (IC50 and IC25) in adequate medium with 2% FBS. After 1 h, 3 ml of growth medium with or without VPA was added. Then, cells were scrapped and cells and medium were harvested at different times post-infection (from day 1 to day 6). After submission of cells and medium to freeze-thaw cycles, the amount of infectious particles was determined by plaque assay on 911 cells and expressed as plaque forming unit (pfu)/ml.
In a second series of experimentations, HT29 cells (5·10^5 cells/well) in 6-well plates were infected with CRAd (MOI 15.6 vp/cell) with or without VPA (IC50 and IC25) in adequate medium supplemented with 2% FBS. After 1 h, 3 ml of growth medium with or without VPA was added. After 3 days, cells and medium were independently harvested and lysed by freeze-thaw cycles. Then, the amount of infectious particles was measured by plaque assay on 911 cells, and expressed as pfu/ml.

Data set [2] has as its system HT29 cells. The data set can be described thus: Cell size and nucleus morphology, Giemsa staining. The data set is classed as cell-based. The settings on record: HT29, 72 h, CRAd MOI 15.6, VPA IC25/IC50. The procedure:
HT29 cells in 6-well plates (5·10^5 cells/well) were untreated or treated with Δ24 CRAd (MOI 15.6 vp/cell), VPA (IC25, IC50) or both. After 72 h, cells were harvested, cytospined on slides, fixed with Wright and stained for 15 minutes in Giemsa solution. After washing, dry slides were mounted with a coverslip. Cells and nuclei observations were performed using phase-contrast microscopy.

The test system of a further data set is HCT116. Put plainly: MTT assay, growth inhibition by HDACi after 48 h. The data set is classed as cell-based. The note with it: Homo sapiens, HCT-116, HCT116, 48 h of treatment. The procedure: HT29, HCT116, SW480, SW620 colon adenocarcinomas cell lines, 911 human embryonic retinal cell lines and HEK293, a human embryonic kidney cell line expressing the adenoviral E1 protein were purchased from ATCC (American Tissue Culture Collection, Manassas, Va., USA).
HCT116 were cultured, in Mc Coy's 5A mediums with 10% heat-inactivated-FBS.
First, three different histone deacetylase inhibitors: Trichostatin A (TSA), an hydroxamic acid; Valproic Acid (VPA), a short-chain aliphatic acid, and sodium butyrate (Nabu), a short-chain aliphatic acid, were evaluated for their ability to induce inhibition of the growth of these cells after 48 h of treatment using an MTT assay.
In general terms: Formazan colour is commonly taken as a measure of viable cells.

For another data set, the system named is p21. The data set can be described thus: p21 expression, Western blot. The settings on record: HCT116, VPA IC25 and IC50, 24, 48, 72 h. It is filed as cell-based. The procedure:
Colon cancer cells HT29 or HCT116 (5·10^5) in MW6 were treated with Δ24 CRAd (MOI 15.6 vp/cell), with or without VPA (IC25 and IC50). At 24, 48, and 72 h p.i., tumor cells were harvested and protein extracts were prepared in RIPA buffer (10 mM Tris base pH 8.8, NaCl 150 mM, EDTA 1 mM, NP-40 1%, deoxycholic acid 1%) supplemented with mini EDTA proteases (ROCHE LABORATORY). Proteins (25 μg) were run into a NuPage (INVITROGEN, France), transferred onto a nitrocellulose membrane, and probed with anti-p21/Waf1 mouse monoclonal antibody (EA10, CALBIOCHEM) and anti-actin antibody (AC-15, SIGMA-ALDRICH), followed by HRP-conjugated secondary antibody. p21 expression was quantified by IMAGE-J software and expressed as arbitrary units relative to untreated cells.
(Immunoblotting shows a protein as a band on a membrane.)

`CCCC(CCC)C(=O)O` [VPA, Valproic Acid]: the “kinetic of tumor growth vs PBS” value with HT29 tumor xenografts (VPA 200 mg/kg intraperitoneally, five consecutive days per week, 4 weeks) is “No difference”. Further, the “tumor growth vs PBS” value in the data set with HT29 tumor xenografts (VPA 300 mg/kg intraperitoneally, five consecutive days per week, 4 weeks) was “significant delay in tumor growth”. For the same compound, the toxicity entry in the data set with HT29 tumor xenografts (VPA 300 mg/kg intraperitoneally, mice) is “did not trigger significant toxicity”. In the data set with HT29 tumor xenografts (second series: virus subcutaneously three consecutive days every 7 days, VPA 300 mg/kg i.p. from day 4, 4 weeks), the “tumor growth compared to PBS-injected mice” value is “reduction of tumor growth”. The “γH2AX expression (confocal microscopy)” value in the data set on γH2AX was “much less than CRAd”. For the same compound, the “LDH release compared to untreated cells” value in the data set on HT29 cells [1] was “increase in LDH release”. The “viral content in cell-associated and extracellular fractions” value in the data set with Δ24 CRAd is on record as “reduction of viral content”. Further, in the data set on HT29 cells [2], the “cell size and nucleus morphology” value was “increase in cell size and cell nuclei with well-defined shape”. This compound also yielded a half-maximal inhibitory concentration (IC50) in the data set with HCT116 of 1200 µM. Also, the “increase in p21 expression compared to untreated cells” value in the data set with p21 is “up to 6 fold”.
